Test results reported in patent US8822444B2, “Hepatitis C virus inhibitors” (Bristol-Myers Squibb Company, priority 2009, dated 2014).

These compounds were tested on HCV 1b genotype (assay: HCV Replicon assay). Conditions: Hepatitis C virus; HCV 1b genotype replicon; read-out: 1b EC50 (in nM or range).
Type: cell-based
Protocol: An HCV Replicon assay was utilized in the present disclosure, and was prepared, conducted and validated as described in commonly owned PCT/US2006/022197 and in O'Boyle et. al. Antimicrob Agents Chemother. 2005 April; 49(4):1346-53. Assay methods incorporating luciferase reporters have also been used as described (Apath.com).
HCV-neo replicon cells and replicon cells containing mutations in the NS5A region were used to test the currently described family of compounds. The compounds were determined to have more than 10-fold less inhibitory activity on cells containing mutations than wild-type cells. Thus, the compounds of the present disclosure can be effective in inhibiting the function of the HCV NS5A protein and are understood to be as effective in combinations as previously described in application PCT/US2006/022197 and commonly owned WO/04014852. Further, the compounds of the present disclosure can be effective against the HCV 1b genotype. It should also be understood that the compounds of the present disclosure can inhibit multiple genotypes of HCV. […] In one embodiment, compounds of the present disclosure are inhibitory versus 1a, 1b, 2a, 2b, 3a, 4a, and 5a genotypes.
`COC(=O)N[C@H](C(=O)N1CCC[C@H]1c1nc(-c2ccc(C34CCC(c5c[nH]c([C@@H]6CCCN6C(=O)[C@@H](NC(=O)OC)C(C)C)n5)(CC3)CC4)cc2)c[nH]1)C(C)C` [Example M-1, methyl ((1S)-1-(((2S)-2-(4-(4-(4-(2-((2S)-1-((2S)-2-((methoxycarbonyl)amino)-3-methylbutanoyl)-2-pyrrolidinyl)-1H-imidazol-4-yl)phenyl)bicyclo[2.2.2]oct-1-yl)-1H-imidazol-2-yl)-1-pyrrolidinyl)carbonyl)-2-methylpropyl)carbamate] showed an EC50 of 0.009 nM.

Same assay, conditions: Hepatitis C virus; HCV 1b genotype replicon; read-out: 1b EC50 Range
For `COC[C@H](NC(=O)OC)C(=O)N1CCC[C@H]1c1nc(-c2ccc(N3CCC(c4c[nH]c([C@@H]5CCCN5C(=O)[C@H](COC)NC(=O)OC)n4)CC3)cc2)c[nH]1` [QC-14, methyl ((1S)-2-((2S)-2-(4-(4-(4-(2-((2S)-1-(N-(methoxycarbonyl)-O-methyl-L-seryl)-2-pyrrolidinyl)-1H-imidazol-4-yl)-1-piperidinyl)phenyl)-1H-imidazol-2-yl)-1-pyrrolidinyl)-1-(methoxymethyl)-2-oxoethyl)carbamate], the EC50 was 100 to 999 nM.
Work on `COC(=O)N[C@H](C(=O)N1[C@@H]2C[C@@H]2C[C@H]1c1nc(Cl)c(-c2ccc(C34CCC(c5[nH]c([C@@H]6C[C@H]7C[C@H]7N6C(=O)[C@@H](NC(=O)OC)C(C)C)nc5Cl)(CC3)CC4)cc2)[nH]1)C(C)C` [Example M-8, methyl ((1S)-1-(((1R,3S,5R)-3-(4-chloro-5-(4-(4-(4-chloro-2-((1R,3S,5R)-2-((2S)-2-((methoxycarbonyl)amino)-3-methylbutanoyl)-2-azabicyclo[3.1.0]hex-3-yl)-1H-imidazol-5-yl)bicyclo[2.2.2]oct-1-yl)phenyl)-1H-imidazol-2-yl)-2-azabicyclo[3.1.0]hex-2-yl)carbonyl)-2-methylpropyl)carbamate] yielded an EC50 of 2 to 4.57 nM.
In the case of `COC(=O)N[C@@H](C)C(=O)N1CCC[C@H]1c1nc(-c2ccc(C34CCC(c5c[nH]c([C@@H]6CCCN6C(=O)[C@H](C)NC(=O)OC)n5)(CC3)CC4)cc2)c[nH]1` [Example M-2, methyl ((1S)-2-((2S)-2-(4-(4-(4-(2-((2S)-1-(N-(methoxycarbonyl)-L-alanyl)-2-pyrrolidinyl)-1H-imidazol-4-yl)bicyclo[2.2.2]oct-1-yl)phenyl)-1H-imidazol-2-yl)-1-pyrrolidinyl)-1-methyl-2-oxoethyl)carbamate], the EC50 is reported as 4.57 to 99 nM.
For `COC[C@H](NC(=O)OC)C(=O)N1CCC[C@H]1c1nc(C2=CCC(c3ccc(-c4c[nH]c([C@@H]5CCCN5C(=O)[C@H](COC)NC(=O)OC)n4)cc3)CC2)c[nH]1` (stereo partly drawn) [QC-11, methyl ((1S)-2-((2S)-2-(4-(4-(4-(2-((2S)-1-(N-(methoxycarbonyl)-O-methyl-L-seryl)-2-pyrrolidinyl)-1H-imidazol-4-yl)-3-cyclohexen-1-yl)phenyl)-1H-imidazol-2-yl)-1-pyrrolidinyl)-1-(methoxymethyl)-2-oxoethyl)carbamate], the EC50 was 4.57 to 99 nM.
For `COC(=O)N[C@H](C(=O)N1CCC[C@H]1c1nc(-c2ccc(C34CCC(c5c[nH]c([C@@H]6CCCN6C(=O)[C@@H](NC(=O)OC)C(C)C)n5)(CC3)CC4)cc2)c[nH]1)C(C)C` [Example M-1, methyl ((1S)-1-(((2S)-2-(4-(4-(4-(2-((2S)-1-((2S)-2-((methoxycarbonyl)amino)-3-methylbutanoyl)-2-pyrrolidinyl)-1H-imidazol-4-yl)phenyl)bicyclo[2.2.2]oct-1-yl)-1H-imidazol-2-yl)-1-pyrrolidinyl)carbonyl)-2-methylpropyl)carbamate], the EC50 was 2 to 4.57 nM.
In the case of `COC(=O)N[C@H](C(=O)N1CCC[C@H]1c1nc(-c2ccc(C3CCC(c4c[nH]c([C@@H]5CCCN5C(=O)[C@@H](NC(=O)OC)C(C)C)n4)CC3)cc2)c[nH]1)C(C)C` (single isomer, unassigned) [QC-16], the EC50 is reported as 2 to 4.57 nM.
`COC(=O)N[C@H](C(=O)N1[C@@H]2C[C@@H]2C[C@H]1c1ncc(-c2ccc(C34CCC(c5cnc([C@@H]6C[C@H]7C[C@H]7N6C(=O)[C@@H](NC(=O)OC)C(C)C)[nH]5)(CC3)CC4)cc2)[nH]1)C(C)C` [Example M-5, methyl ((1S)-1-(((1R,3S,5R)-3-(5-(4-(4-(2-((1R,3S,5R)-2-((2S)-2-((methoxycarbonyl)amino)-3-methylbutanoyl)-2-azabicyclo[3.1.0]hex-3-yl)-1H-imidazol-5-yl)bicyclo[2.2.2]oct-1-yl)phenyl)-1H-imidazol-2-yl)-2-azabicyclo[3.1.0]hex-2-yl)carbonyl)-2-methylpropyl)carbamate] was tested, and the EC50 was 2 to 4.57 nM.
